Laboratory results: patent US8133906B2, “Method of treating amblyopia” (Hermo Pharma Oy, priority 2007, dated 2012)
Entries after “also recorded” stand apart in the source; their conditions may differ.

Experiments:
[1] = tested on: adult rats, visual cortex contralateral to the deprived eye; test: Intracortical infusion of diazepam or vehicle during MD in fluoxetine treated rats, C/I VEP ratio; assay type: in vivo, rat; settings: cortical diazepam 2 mg/ml during last week of chronic fluoxetine
Experimental: Additional doses of urethane were used to keep the anesthesia level stable throughout the experiment. Body temperature was continuously monitored and maintained at ˜37° C. by a thermostated electric blanket during the experiment. An ECG was continuously monitored. A hole was drilled in the skull, corresponding to the binocular portion of the primary visual cortex (binocular area OclB) contralateral to the deprived eye. After exposure of the brain surface, the dura was removed, and a micropipette (2 MΩ) filled with NaCl (3 M) was inserted into the cortex 5 mm from λ (intersection between sagittal- and lambdoid-sutures). Both eyes were fixed and kept open by means of adjustable metal rings surrounding the external portion of the eye bulb. We measured visual acuity through both eyes using visual evoked potentials (VEPs). During recording through one eye, the other was covered by a black adhesive tape. […] Transient VEPs in response to abrupt contrast reversal (0.5 Hz) were evaluated in the time domain by measuring the peak-to-baseline amplitude and peak latency of the major negative component. Visual stimuli were horizontal sinusoidal gratings of different spatial frequencies and contrast, generated by a VSG2/2 card running custom software and presented on a monitor (20×22 cm; luminance 15 cd m^−2) positioned 20 cm from the rat's eyes and centred on the previously determined receptive fields. […]

adult amblyopic rats = test: Behavioral assessment of visual acuity (visual water task) in adult amblyopic rats; assay type: in vivo, rat; settings: reverse suture, 4-week fluoxetine, n=5
Experimental: (§1) This method of administration yields steady-state plasma concentrations of 356±99 ng/ml in rats, which is within the recommended plasma concentration for the treatment of depression in humans (50-450 ng/ml).
(§2) To perform analysis of long-term MD, rats were anesthetized with avertin (1 ml kg^−1) and monocularly deprived through eyelid suturing at P21. Eyelid closure was inspected daily until complete cicatrization; subjects with even minimal spontaneous re-opening were excluded. […] The long-term deprived eye was re-opened using thin scissors, while the other eye was sutured shut. Great care was taken during the first days after RS to prevent inflammation or infection in the previously deprived eye through topical application of antibiotic and cortisone.
Then, after RS, during the third week of treatment (P90), we started measuring visual acuity of the long term deprived eye. […] To measure visual acuity, we used the visual water task (Prusky et al., 2000) which trains animals to first distinguish a low (0.1 cycles per degree (c deg^−1)) spatial frequency vertical grating from grey, and then tests the limit of this ability at higher spatial frequencies. The apparatus consists of a trapezoidal-shaped pool with two panels placed side by side at one end. […] A trial is recorded as incorrect if an animal enters the arm without the platform. […]

[2] = tested on: adult rat visual cortex slices; test: LTP recordings in visual cortex slices after theta-burst stimulation from the white matter (WM-LTP); settings: slices from fluoxetine treated adult rats (P100), measured 20-30 min following TBS
Source text: Slices (0.35 mm thick) of visual cortex were obtained using a Leica (Nussloch, Germany) vibratome. […] The recording solution was composed as the cutting solution with the following differences (in mM): 130 NaCl, 5.0 dextrose, 1.0 MgCl2, 2.0 CaCl2, 0.01 glycine, no kynurenate, no sucrose. Electrical stimulation (100 μsec duration) was delivered with a bipolar concentric stimulating electrode (FHC, St. Bowdoinham, Me.) placed at the border of the white matter and layer VI. Field potentials in layers II-III were recorded by a micropipette (1-3MΩ) filled with NaCl (3 M). Baseline responses were obtained every 30 sec with a stimulation intensity that yielded a half-maximal response. After achievement of a 15 min stable baseline (field potential amplitude within 15% of change and with no evident increasing or decreasing trends), θ burst stimulation (TBS) was delivered. Postsynaptic field potentials after TBS were recorded every 30 sec during 30 min.

BDNF = BDNF protein expression by ELISA after repeated fluoxetine administration; assay type: in vivo, rat; settings: adult rats
Experimental: as §1
Proteins from fresh visual cortex and hippocampus were initially extracted, respectively, using lysis buffer (1% Triton X-100, 10% Glycerol, 20 mM TrisHCl pH 7.5, 150 mM NaCl, 10 mM EDTA, 0.1 mM Na3VO4, 1¼ g/ml Leupeptin, 1¼ g/ml Aprotinin, 1 mM PMSF). The total concentration of samples was quantified with the protein assay kit (Bio-Rad, Hercules, Calif.) using a BSA based standard curve. Afterwards, BDNF expression was assessed loading 100 μg of total proteins in triplicate in a standard ELISA plate together with a standard curve and processed as indicated in the manufacturer protocol (BDNF, Promega).

[3] = tested on: adult amblyopic rats, visual cortex contralateral to the long-term deprived eye; test: VEP recording of visual acuity and binocularity in adult amblyopic rats (long-term MD from P21, reverse suture); assay type: in vivo, rat; settings: long-term MD from P21, reverse suture last two weeks of 4-week fluoxetine, n=5, control 0.62±0.06, fellow eye 1.06±0.01
Experimental: as §1
as §2, with “Great care was taken during the first days after RS to prevent inflammation or infection in the previously deprived eye through topical application of antibiotic and cortisone.” left out
Additional doses of urethane were used to keep the anesthesia level stable throughout the experiment. Body temperature was continuously monitored and maintained at ˜37° C. by a thermostated electric blanket during the experiment. An ECG was continuously monitored. […] We measured visual acuity through both eyes using visual evoked potentials (VEPs). […] Transient VEPs in response to abrupt contrast reversal (0.5 Hz) were evaluated in the time domain by measuring the peak-to-baseline amplitude and peak latency of the major negative component. […] Binocularity (ocular dominance) was assessed calculating the contralateral to ipsilateral (C/I) VEP ratio, i.e. the ratio of VEP amplitudes recorded by stimulating the eye respectively contralateral and ipsilateral to the visual cortex where recording is performed.

[4] = tested on: extracellular GABA and glutamate in visual cortex; test: In vivo brain microdialysis in the visual cortex with HPLC of GABA and glutamate; set-up: species or system rat; settings: adult rats, repeated fluoxetine
Experimental: After the end of repeated treatment with fluoxetine, the in vivo sampling of dialysates was performed inserting a microdialysis probe into the guide shaft previously implanted. A detailed description of the procedure followed is reported in (Hernandez et al., 1986). Briefly, the probe was made of concentric fused-silica polyimide covered capillary tube into a 26 gauge stainless steel tube with a 1 mm long tip of exposed cellulose membrane (6000 MW cut-off). It was connected to a dialysis system pumping an artificial CSF (142 mM NaCl, 3.9 mM KCl, 1.2 mM CaCl2, 1 mM MgCl2, 1.35 mM Na2HPO4, pH 7.4) at a flow rate of 1 μl min^−1. The probe protruded 1 mm from the tip of the guide shaft. Six hours after insertion of the probe (stabilization period), sampling was carried out.
After brain microdialysis, rats were sacrificed with an overdose of chloral hydrate and perfused intracardially as described above. Brains were post-fixed for two hours before being immersed in 30% sucrose in PBS. […]
Analysis of γ-aminobutyric acid (GABA) and glutamate (GLU) basal levels from microdialysates was performed using High Performance Liquid Chromatography (HPLC) coupled to a fluorimetric detection system. […] Homoserine was used as internal standard and amino-acid concentrations were calculated from a linear standard curve built upon known concentrations of injected amino acids. […]

[5] = humans; cited from earlier work
[6] = tested on: adult Long-Evans hooded rats, binocular visual cortex contralateral to the deprived eye; test: Ocular dominance plasticity after one week of monocular deprivation (MD) in adult rats, C/I VEP ratio; assay type: in vivo, rat; settings: fluoxetine alone, without deprivation of one eye
Experimental: Adult Long-Evans hooded rats were used in this study. Animals were group-housed under standard conditions with food and water ad libitum in plexiglass cages (40×30×20 cm) and kept in a 12:12 light/dark cycle.
Adult animals, under treatment, were anesthetized with avertin (1 ml kg^−1) and mounted on a stereotaxic apparatus to be monocularly deprived. Eyelid closure was inspected daily until complete cicatrization; subjects with even minimal spontaneous re-opening were excluded. Great care was taken during the first days after MD to prevent inflammation or infection of the deprived eye through topical application of antibiotic and cortisone.
Additional doses of urethane were used to keep the anesthesia level stable throughout the experiment. Body temperature was continuously monitored and maintained at ˜37° C. by a thermostated electric blanket during the experiment. An ECG was continuously monitored. A hole was drilled in the skull, corresponding to the binocular portion of the primary visual cortex (binocular area OclB) contralateral to the deprived eye. […] We measured visual acuity through both eyes using visual evoked potentials (VEPs). […] Transient VEPs in response to abrupt contrast reversal (0.5 Hz) were evaluated in the time domain by measuring the peak-to-baseline amplitude and peak latency of the major negative component. […]

Structure (SMILES)	Effect on OD shift induced by MD in fluoxetine treated rats [1]	Visual acuity of the formerly deprived eye (behavioral, visual water box task) (adult amblyopic rats) [c deg^−1]	WM-LTP of layer II-III field potentials after theta-burst stimulation vs controls [2]	BDNF protein expression in hippocampus vs controls (BDNF; t-test p<0.01 n=6)	BDNF protein expression in visual cortex vs controls (BDNF; t-test p<0.04 n=6)	Visual acuity of the formerly deprived eye (VEP) [3] [c deg^−1]	Extracellular glutamate (GLU) levels vs controls ([4]; data not shown)	Basal extracellular levels of GABA in visual cortex vs controls ([4]; n=5, p<0.02)	Recommended (therapeutic) plasma concentration for the treatment of depression [5] [ng/mL]	Responsiveness of either eye to visual stimulation [6]
CN1C(=O)CN=C(c2ccccc2)c2cc(Cl)ccc21 [diazepam]	prevented the restoration of OD plasticity; also recorded: totally prevented	–	–	–	–	–	–	–	–	–
CNCCC(Oc1ccc(C(F)(F)F)cc1)c1ccccc1 (stereo not shown) [fluoxetine]	–	0.88±0.02	significantly enhanced; also recorded: fully restored	significantly higher; also recorded: similarly enhanced	significantly higher	0.97±0.04	No difference	significantly lower; also recorded: significant reduction	50 to 450	did not produce any changes
